# Laboratory results published in patent US20070166547A1, “Use of a layer consisting of hydrophobic linear, or two-dimensional polycyclic aromatics as a barrier layer or an encapsulation and electric components constructed with a layer of this type and comprising organic polymers” (priority 2003, published 2007).
# Tests used:
# [1] = tested on: indicator enzymes in blood plasma; assay: Morphine abstinence model: indicator enzymes AST, ALT, γ-GTP in blood plasma; format: in vivo, rats Wistar
# Procedure: (§1) The experiments were carried out on rats in series of 7 animals on each compound according to the invention. Non-morphinized animal with not administered with compounds according to the invention were used as a control group. […] Then the rats were decapitated, the blood from somnolent arteries was collected in test tubes with solution EDTA as an anticoagulant, centrifuged at 1500 g for 15 minutes at 4° C.
# To estimate possible hepatoprotective action of the compounds according to the invention under conditions of development of an oxidizing stress in the liver cells, effect of these compounds on the most important biochemical blood indexes, in particular, on the content in blood plasma of indicator enzyme of aspartateaminotransferase (AST), alanineaminotransferase (ALT), γ-glutamiletranspeptidase (γ-GTP) was investigated. The content of enzymes was estimated by their catalyzing activity in blood plasma.
# The activity of AST, ALT and γ-GTP was determined by means of diagnostic sets DiaSys, Germany.
# [2] = tested on: adenosine-sensitive receptors of thrombocytes; assay: ADP-induced aggregation of thrombocytes in vitro (Born method); format: cell-based, rabbit; conditions: 3 min incubation, ADP 10^−5 M
# Procedure: The compounds according to the invention were studied for the effect of aggregation of thrombocytes induced by a preliminary introduction of a solution of an aggregation inductor with a competing introduction of the compounds according to the invention.
# The aggregation of thrombocytes was studied by the Born method based on determination of the changes in the optical density of plasma enriched with thrombocytes after its incubation with an aggregation inductor.
# Adenozinediphosphoric acid (ADP) was selected as an aggregation inductor, which in fact is an aggregation generator. Use was made of a sample (registration number 885) of the Sigma Diagnostics Company (USA) in final concentration of 10^−5 M.
# The experiments were carried out on male rabbits of the “Chinchilla” breed having a mass of 2.7±0.3 kg. 18-24 hours prior to the experiment they were deprived of feed while preserving free access to water.
# To obtain plasma enriched with thrombocytes, blood was taken from a cut of a marginal vein of the rabbit ear, the sample was stabilized with 3.8% of sodium citrate solution in a ratio of 9:1 and centrifuged at 200 g (1000 rev/min) for 10 minutes. The top supernatant layer enriched with thrombocytes was transferred by an automatic dropper into a silicone test tube and kept at 37° C. The plasma enriched with thrombocytes contained, on the average, […]. If this content exceeded the specified 3×10^8 blood platelets in 1 liter, this sample was diluted to the necessary concentration with plasma deprived of thrombocytes, which was obtained by centrifuging blood at 650 g during 10 minutes.
# The measurements of the optical density of the samples were made on two-channel aggregometer of the “Chronolog” Company (USA). A flask containing 490 mkl of plasma rich with thrombocytes was placed in a device, into which a magnetic agitator covered with Teflon was lowered. The index of maximum amplitude of aggregation (MA) in percent of a fall of the plasma optical density under effect of the aggregation inductor was recorded. The control index MA of plasma was compared with the MA of plasma incubated for 3 minutes with different concentrations of the compounds: from 10^−3 to 10^−7 in vitro experiments or with plasma obtained 15, 30, 60 and 120 minutes after intravenous administration of different doses of the compounds in vivo experiments.
# The process of aggregation of thrombocytes was recorded with the help of a computer; on the monitor screen the there were depicted curves reflecting changes of the optical density of the plasma enriched which was taken as a standard 100% compared to the optical density of the non-thrombocyte plasma taken for 0% content of thrombocytes.
# Under in vitro conditions a flask was filled with blood plasma enriched with thrombocytes, to which an aggregation inductor ADP was added at a concentration of 10^−5 M, incubated for 3 minutes, and then the compounds according to the invention were introduced directly into the flask. Their action by aggregation of thrombocytes was studied after 3-minute incubation in a wide range of concentrations from 10^−3 to 10^−7 M to minimum concentration of 10^−7 M not inducing no effect of suppressing the aggregation.
# thymus [3] = assay: Morphine abstinence model: thymus condition; format: in vivo, rats; conditions: compound alone
# [4] = tested on: metabolism of nitrogen oxide; assay: Morphine abstinence model: nitrites and nitrates NOX− in blood plasma, liver and brain; format: in vivo, rats Wistar
# Procedure: as §1
# To estimate the intensity of metabolism of nitrogen oxide in rats, quantitative determination of stable metabolites of nitrogen oxide—nitrites and nitrates NOX^− in the blood plasma, supernatanates of the liver and thymus gland, a study was conducted by a spectrometric method, and in the brain supernatanates by a […] method.
# The spectrometric method is based the reaction of nitrites with the Griss reagent (a mixture of 2% solution of sulfanilamide and 0.2% N-(1-naphthyl)ethylene diamine. At the first step the nitrite reacts with sulfanilamide with formation of diazonium salt, and then with the second component to form azo dye with an adsorption maximum at 540 nm. For reduction of nitrates into nitrites, a fermentative method was used with bacterial reductase nitrate (Grisham M. B. et al., 1995). The samples of plasma and supernatant of the liver deproteinizated at 100° C. for 5 minutes incubated for 30 minutes at 37° C. in 50.0 mM of HEPES pH 7.4 in the presence of 0.2 unit/ml of Aspergillus reductase nitrate, 5.0 mkM of FAD and 0.1 mM of NAD-Ph. At the end of the reaction lactate dehydrogenase and pyruvate were added for isolation of NAD-Ph interfering with the Griss reaction. Then the Griss reagent was added and after 10-minute incubation the light absorption of the samples was measured at 540 nm. To amount of NOX^− was calculated using sodium nitrate as a standard.
# The fluorometric method is based on calculation of the nitrite level by the intensity fluorescence of 2,3-diaminonaphthotriazole, a product of reaction of 2,3-diaminonaphthalene (DAN) and nitrite in an acidic medium (Misko T. R., Schilling R. J., Salvemini D. et al. “A fluorometric assay for the measurement of nitrite of biological samples”. Anal. Biochem., 1993, v. 214, p. 11-16). The brain supernatants deproteinizated at 100° C. were placed in a nitrite regenerating system containing 0.125 unit/ml of nitrate reductases, 25 mkM NADPh and 25 mkM FAD prepared in a 20-mM Tris-HCl buffer with pH 7.6 and incubated for 30 minutes at 37° C. The lactatedehydrogenase/pyruvate system was used for oxidation of the NADPh. Then 316 mkM of the DAN solution in 0.62 M of hydrochloric acids were added and the mixture was incubated for 10 minutes in darkness.
# 280 mM of NaOH were added for stabilization of the fluorescence of the formed 2,3-diaminonaphthotriazole. The fluorescence intensity was measured in the spectrofluorimeter Hitachi F-3000 at a wavelength of excitation of 365 nm and an emission of 405 nm. The concentration of NOX^− in the brain was calculated by means of a standard solution of sodium nitrate.
# thymus [5] = assay: Morphine abstinence model: thymus condition; format: in vivo, rats; conditions: morphinized rats then compound
# Procedure: The effect of the compounds according to the invention on the condition of the thymus of the rats was also investigated: a control group, an experimental group of morphinized animals and an experimental group of animals were first morphinized and then injected with the compounds according to the invention. The experiment was carried out similarly to that described above.
# [6] = tested on: synthase of nitrogen oxide (NOC); assay: Morphine abstinence model: activity of synthase of nitrogen oxide (radiometric, [3H]L-citrulline); format: in vivo, rats Wistar
# [7] = for comparison; cited from earlier work
# [8] = compound alone 20.0 mg/kg intramuscularly
# [9] = morphinized rats then compound 20.0 mg/kg intramuscularly
compound,measurement,setting,value
"O=c1[nH][nH]c(=O)c2ncccc12.[Li] [Compound 6, lithium salt of pyrido[2,3-d]-6H-pyridazine-5,8-dione]","ALT, Ci, mE/l, Control + compound",[1]; [8],114.5 ± 1.13 mE/l
same,"AST, Ci, mE/l, Control + compound",[1]; [8],176.18 ± 3.26 mE/l
same,"γ-GTP, Ci, mE/l, Control + compound",[1]; [8],8.27 ± 2.12 mE/l
same,"ALT, Ci, mE/l, control + Morphine + Compound",[1]; [9],122.44 ± 2.01 mE/l
same,"AST, Ci, mE/l, control + Morphine + Compound",[1]; [9],198.34 ± 9.32 mE/l
same,"γ-GTP, Ci, mE/l, control + Morphine + Compound",[1]; [9],12.52 ± 2.02 mE/l
same,"MA - fall of optical density of plasma, % to the standard",[2]; 10^−3 M,50.0 ± 1.9 %
same,"MA - fall of optical density of plasma, % to the standard",[2]; 10^−4 M,53.3 ± 2.2 %
same,"MA - fall of optical density of plasma, % to the standard",[2]; 10^−5 M,47.4 ± 2.0 %
same,"MA - drop of optical density, % compared to control",[2]; 10^−6 M,51.2 ± 3.2%
same,"MA - drop of optical density, % compared to control",[2]; 10^−7 M,50.7 ± 3.2%
same,"Nitrites, thymus Supernatant, Administration of compounds",thymus [3],0.424 ± 0.04 nmol/mg of protein
same,"Thymus mass, Administration of compounds",thymus [3],242 ± 17 mg
same,"Nitrites in blood plasma, Control + Compound",[4]; [8],15.83 ± 1.21 mkmol/ml
same,"Nitrites in brain, Cortex of cerebrum, Control + Compound",[4]; [8],4.59 ± 0.44 nmol/mg of protein
same,"Nitrites in brain, Hypothalamus, Control + Compound",[4]; [8],6.94 ± 0.67 nmol/mg of protein
same,"Nitrites in brain, Mesencephalon, Control + Compound",[4]; [8],7.01 ± 0.82 nmol/mg of protein
same,"Nitrites in liver, Control + Compound",[4]; [8],0.245 ± 0.010 nmol/mg of protein
same,"Nitrites in blood plasma, Control + Morphine + compound",[4]; [9],15.86 ± 1.20 mkmol/ml
same,"Nitrites in brain, Cortex of cerebrum, Control + Morphine + compound",[4]; [9],5.12 ± 0.18 nmol/mg of protein
same,"Nitrites in brain, Hypothalamus, Control + Morphine + compound",[4]; [9],6.72 ± 0.94 nmol/mg of protein
same,"Nitrites in brain, Mesencephalon, Control + Morphine + compound",[4]; [9],5.76 ± 0.94 nmol/mg of protein
same,"Nitrites in liver, Control + Morphine + compound",[4]; [9],0.294 ± 0.02 nmol/mg of protein
same,"Nitrites, thymus Supernatant, Administration of morphine and compound",thymus [5],0.419 ± 0.02 nmol/mg of protein
same,"Thymus mass, Administration of morphine and compound",thymus [5],207 ± 14 mg
same,"Activity of NOC, Hypothalamus, Control + Compound",[6]; [8],5.93 ± 0.27 pmol/min/mg of protein
same,"Activity of NOC, Mesencephalon, Control + Compound",[6]; [8],2.84 ± 0.31 pmol/min/mg of protein
same,"Activity of NOC, Hypothalamus, Control + Morphine + compound",[6]; [9],5.24 ± 0.24 pmol/min/mg of protein
same,"Activity of NOC, Mesencephalon, Control + Morphine + compound",[6]; [9],1.99 ± 0.31 pmol/min/mg of protein
NC(=O)c1ccc[n+]([C@@H]2O[C@H](COP(=O)([O-])OP(=O)(O)OC[C@H]3O[C@@H](n4cnc5c(N)ncnc54)[C@H](O)[C@@H]3O)[C@@H](O)[C@H]2O)c1 [NAD^+],E1/2 of electrochemical reduction of coenzyme,[7],−0.32 V
Cc1cc2nc3c(=O)[nH]c(=O)nc-3n(C[C@H](O)[C@H](O)[C@H](O)COP(=O)(O)OP(=O)(O)OC[C@H]3O[C@@H](n4cnc5c(N)ncnc54)[C@H](O)[C@@H]3O)c2cc1C [FAD^+],E1/2 of electrochemical reduction of coenzyme,[7],−0.05 V
